Measurements taken from article PMC8878452, “A Tale of Toxin Promiscuity: The Versatile Pharmacological Effects of Hcr 1b-2 Sea Anemone Peptide on Voltage-Gated Ion Channels” (Marine Drugs, 2022).
Entries after “also recorded” stand apart in the source; their conditions may differ. Bridges are numbered along the chain shown (N, C = ends). Where no end group is shown, it is not given here.

How the values were obtained:
rCav3.1 = test: TEVC, Cav3.1 in Xenopus oocytes; format: cell-based, rat
Description: (§1) For the expression of Kv channels (rKv1.1, rKv1.2, rKv1.3, rKv1.4, rK1.5, rKv1.6, hKv2.1, hKv3.1, rKv4.2, hKv7.1, hKv7.2/7.3, hKv7.4, KQT1 (from the roundworm Caenorhabditis elegans), hKv10.1 (hEAG1), hKv11.1 (hERG1), and Shaker, from Drosophila melanogaster), Nav channels (rNav1.1, rNav1.2, rNav1.3, rNav1.4, hNav1.5, mNav1.6, hNav1.7, hNav1.8, and BgNav (from the cockroach Blattella germanica), as well as the hβ1 and rβ1 subunits, and Cav channels (rCav3.1, hCav3.2, and rCav3.3) in Xenopus oocytes, the linearized plasmids were transcribed using the T7 or SP6 mMESSAGEmMACHINE transcription kit (Ambion, Austin, TX, USA). Mature female animals were purchased from Nasco (Fort Atkinson, WI, USA) and were housed in the Aquatic Facility (KU Leuven) in compliance with the regulations of the European Union (EU) concerning the welfare of laboratory animals as declared in Directive 2010/63/EU. The use of X. laevis oocytes was approved by the Animal Ethics Committee of the KU Leuven, with the license number P186/2019.
(§2) Stage V–VI oocytes were collected from anesthetized female X. laevis frog as previously described, with the frogs anesthetized by placement in a 0.1% tricaine solution (amino benzoic acid ethyl ester; Merck, Kenilworth, NJ, USA). Oocyte microinjection was performed using a microinjector (Drummond Scientifc®, Broomall, PA, USA), with a programmed cRNA injection volume of 4–50 nL, depending on channel subtype. The oocytes were incubated in ND96 solution (96 mM NaCl; 2 mM KCl; 1.8 mM CaCl2; 2 mM MgCl2, and 5 mM HEPES, pH 7.4), supplemented with 50 mg/L of gentamicin sulfate.
(§3) Electrophysiological measurements were performed at room temperature (18–22 °C) using the two-electrode voltage-clamp (TEVC) technique. Data were obtained using a GeneClamp 500 amplifier (Axon Instruments®, Burlingame, CA, USA) and Clampex9 software (Axon Instruments®, USA) was responsible for data acquisition and storage. Glass micropipettes were produced using glass capillaries (borosilicate WPI 1B120-6) and drawn in a WPI (World Precision Instruments®, Sarasota, FL, USA) manual stretcher. The bath and perfusion solutions were either the previously described ND96 (Nav and Kv channels) or calcium-free ND96 supplemented with 10 mM BaCl2 (Cav channels).
(§4) Whole-cell currents of oocytes were recorded 1 to 3 days after RNA injection. The current and voltage electrodes were filled with 3 M KCl, and their resistance was adjusted from 1.0 to 2.5 MΩ. […] The current–voltage relationships were determined by 50 ms step depolarizations between −90 and +65 mV using 5 or 10 mV increments. All electrophysiological data were analyzed following the procedures described by Peigneur et al., 2012 [20].
(§5) All values were expressed as means ± SEM. […]

ASIC = test system: ASIC; parameters: method as in 2 sources, one per row (each row's own in cited_ref): ref 17 = [17]; PMID 29684594; doi:10.1016/j.peptides.2018.04.013; 17. Kalina R. Gladkikh I. Dmitrenok P. Chernikov O. Koshelev S. Kvetkina A. Kozlov S. Kozlovskaya E. Monastyrnaya M. New APETx-like peptides from sea anemone Heteractis crispa modulate ASIC1a channels ||| ref 22 = [22]; PMID 15044953; doi:10.1038/sj.emboj.7600177; 22. Diochot S. Baron A. Rash L.D. Deval E. Escoubas P. Scarzello S. Salinas M. Lazdunski M. A new sea anemone peptide, APETx2, inhibits ASIC3, a major acid-sensitive channel in sensory neurons EMBO J.; conditions: cited from earlier work
hCav3.2 = test: TEVC, Cav3.2 in Xenopus oocytes; format: cell-based, human
Description: as §1, §2, §3
(§6) Whole-cell currents of oocytes were recorded 1 to 3 days after RNA injection. The current and voltage electrodes were filled with 3 M KCl, and their resistance was adjusted from 1.0 to 2.5 MΩ. Currents were sampled at 20 kHz (Nav channels) and 10 kHz (Kv and Cav channels) and filtered using a four-pole Bessel low-pass Bessel filter at 1 kHz for sodium and […] for potassium and calcium, except for the hERG ion channel in which the currents were filtered at 1 kHz. Leak subtraction was performed using a P/4 protocol. Kv1.x currents were evoked by 500 ms depolarizations to 0 mV, followed by a 500 ms pulse to −50 mV from a holding potential of −90 mV. Kv2.1, Kv3.1, Kv4.2, Kv7.x, and KQT1 currents were elicited by 700 ms pulses to +20 mV from a holding potential of −90 mV. Current traces of the hERG1 channel were elicited by applying a +40 mV prepulse for 2 s, followed by a step of −120 mV for 2 s. […] The current–voltage relationships were determined by 50 ms step depolarizations between −90 and +65 mV using 5 or 10 mV increments. All electrophysiological data were analyzed following the procedures described by Peigneur et al., 2012 [20].
as §5

hKv7.2/7.3 = test: TEVC, Kv7.2/7.3 in Xenopus oocytes; format: cell-based, human
Description: as §1, §2, §3, §4, §5

mNav1.6 = test: TEVC, Nav1.6 in Xenopus oocytes; format: cell-based, mouse
Description: as §1, §2, §3, §6, §5

rKv1.1 = test: TEVC, Kv1.1 in Xenopus oocytes; format: cell-based, rat
Description: as §1, §2, §3, §4, §5

Kv1.5 = test: TEVC, Kv1.5 in Xenopus oocytes; format: cell-based, rat; conditions: 1 µM, n ≥ 3
Description: as §1, with “P186/2019. […]” for “P186/2019.”
as §4, with “injection.” for “injection. The current and voltage electrodes were filled with 3 M KCl, and their resistance was adjusted from 1.0 to 2.5 MΩ.”
as §5

hKv2.1 = test: TEVC, Kv2.1 in Xenopus oocytes; format: cell-based, human
Description: as §1, §2, §3, §6, §5

[1] = 1 µM vs control (ND96 Ca2+ free)
[2] = 1 µM, TEVC, ND96 pH 7.4, 18–22 °C, n ≥ 3

Question: For “GTPCKCHGYIGVYWFMLAGCPNGYGYNLSCPYFLGICCVKK (disulfide 4-37, 6-30, 20-38 (inferred)) [Hcr 1b-2]”, which “Shift in Vhalf activation, Cav3.1” value (rCav3.1; [1]) is on record?
Answer: The value was −0.2 mV.

Question: And the “Shift in Vhalf inactivation, Cav3.1” value (rCav3.1; [1])?
Answer: Its value is −2.3 mV.

Question: And the “Vhalf activation, Cav3.1” value (rCav3.1; 1 µM, control (ND96 Ca2+ free) −41.0 ± 0.1, mean ± SEM, n ≥ 3)?
Answer: Its value is −41.2 ± 0.1 mV.

Question: And the “Vhalf inactivation, Cav3.1” value (rCav3.1; 1 µM, control (ND96 Ca2+ free) −58.4 ± 0.2, mean ± SEM, n ≥ 3)?
Answer: Its value is −60.7 ± 0.2 mV.

Question: What about the ASIC inhibition (ASIC) of the same sequence?
Answer: Its ASIC inhibition is “ASIC inhibitors”.

Question: And the “Shift in Vhalf activation, Cav3.2” value (hCav3.2; [1])?
Answer: The value was −0.4 mV.

Question: And the “Shift in Vhalf inactivation, Cav3.2” value (hCav3.2; [1])?
Answer: The value was 0.5 mV.

Question: And the “inhibition, Cav3.2” value (hCav3.2; 1 µM, calcium-free ND96 + 10 mM BaCl2, 700 ms depolarization to −20 mV from −90 mV, mean ± SEM, n ≥ 3)?
Answer: Its value is 35.1 ± 0.7%.

Question: What about the “Vhalf activation, Cav3.2” value (hCav3.2; 1 µM, control (ND96 Ca2+ free) −31.9 ± 0.1, mean ± SEM, n ≥ 3) of the same sequence?
Answer: Its value is −32.3 ± 0.2 mV.

Question: And the “Vhalf inactivation, Cav3.2” value (hCav3.2; 1 µM, control (ND96 Ca2+ free) −46.6 ± 0.8, mean ± SEM, n ≥ 3)?
Answer: The value was −46.1 ± 0.6 mV.

Question: What about the “gating-modifier effect (voltage-current relationship), Kv7.2/7.3” value (hKv7.2/7.3; 1 µM) of the same sequence?
Answer: The value was “non-significant gating-modifier effect”.

Question: And the “Shift in Vhalf activation, Kv7.2/7.3” value (hKv7.2/7.3; 1 µM vs control (ND96))?
Answer: Its value is 1.3 mV.

Question: And the “effect on potassium current, Kv7.2/7.3” value (hKv7.2/7.3; [2])?
Answer: The value was “inhibition; also recorded: inhibits”.

Question: What about the “Vhalf activation, Kv7.2/7.3” value (hKv7.2/7.3; 1 µM, control (ND96) 14.6 ± 0.5, mean ± SEM) of the same sequence?
Answer: The value was 15.9 ± 0.7 mV.

Question: What about the “Shift in Vhalf activation, Nav1.6” value (mNav1.6; 1 µM vs control (ND96)) of the same sequence?
Answer: Its value is 3.5 mV.

Question: And the “Shift in Vhalf inactivation, Nav1.6” value (mNav1.6; 1 µM vs control (ND96))?
Answer: Its value is −7.6 mV.

Question: And the “reduction of peak amplitude (INa), Nav1.6” value (mNav1.6; 1 µM, 100 ms depolarization to 0 mV, mean ± SEM, n ≥ 3)?
Answer: Its value is 41.8 ± 7.1%.

Question: What about the “Vhalf activation, Nav1.6” value (mNav1.6; 1 µM, control (ND96) −23.5 ± 0.1, mean ± SEM, n ≥ 3) of the same sequence?
Answer: The value was −20.0 ± 0.1 mV.

Question: And the “Vhalf inactivation, Nav1.6” value (mNav1.6; 1 µM, control (ND96) −49.1 ± 0.3, mean ± SEM, n ≥ 3)?
Answer: The value was −56.7 ± 0.4 mV.

Question: What about the “gating-modifier effect (voltage-current relationship), Kv1.1” value (rKv1.1; 1 µM) of the same sequence?
Answer: The value was “non-significant gating-modifier effect”.

Question: What about the “Shift in Vhalf activation, Kv1.1” value (rKv1.1; 1 µM vs control (ND96)) of the same sequence?
Answer: The value was −4.8 mV.

Question: What about the “effect on potassium current, Kv1.1” value (rKv1.1; [2]) of the same sequence?
Answer: Its value is “activation”.

Question: And the “Vhalf activation, Kv1.1” value (rKv1.1; 1 µM, control (ND96) −13.8 ± 0.3, mean ± SEM)?
Answer: Its value is −18.6 ± 0.3 mV.

Question: What about the “activity (inhibition of current), Kv1.5” value (Kv1.5; 500 ms depolarization to 0 mV from −90 mV, mean ± SEM) of the same sequence?
Answer: Its value is 41.9 ± 4.7%.

Question: What about the “effect on potassium current, Kv1.5” value (Kv1.5; TEVC, ND96 pH 7.4, 18–22 °C) of the same sequence?
Answer: The value was “inhibition”.

Question: What about the “gating-modifier effect (voltage-current relationship), Kv2.1” value (hKv2.1; 1 µM) of the same sequence?
Answer: Its value is “non-significant gating-modifier effect”.

Question: What about the “Shift in Vhalf activation, Kv2.1” value (hKv2.1; 1 µM vs control (ND96)) of the same sequence?
Answer: The value was 2.6 mV.

Question: And the “activity (inhibition of current), Kv2.1” value (hKv2.1; 1 µM, 700 ms pulse to +20 mV from −90 mV, mean ± SEM, n ≥ 3)?
Answer: The value was 32.6 ± 3.4%.

Question: And the “effect on potassium current, Kv2.1” value (hKv2.1; [2])?
Answer: The value was “inhibition”.

Question: What about the “Vhalf activation, Kv2.1” value (hKv2.1; 1 µM, control (ND96) 5.3 ± 0.3, mean ± SEM) of the same sequence?
Answer: The value was 8.0 ± 0.2 mV.
